From ChEMBL document CHEMBL1201862, “PubChem BioAssay data set” (2004)
Several values for one entry are separate records, joined by “and”; a condition that tells them apart may be missing. Equal values may be shown once.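 Compound exposure: 48 hours, 5 concentrations, 96-well plates. GI50 marks 50% less growth.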 Activity calls are given as the source filed them. No stated cut-off is given here; in the data, active = GI50 up to about 1.1 µM and inactive = higher.

Experiments:
Assay in all cases: NCI tumour cell line growth inhibition, 48 h
SK-MEL-5 = system: SK-MEL-5
K562 = system: K562
NCI-H460 = system: NCI-H460
SW-620 = system: SW-620
IGROV-1 = system: IGROV-1
MDA-MB-231 = system: MDA-MB-231
SN12C = system: SN12C
HCT-116 = system: HCT-116
786-0 = system: 786-0
EKVX = system: EKVX
HOP-62 = system: HOP-62
NCI-H522 = system: NCI-H522
OVCAR-8 = system: OVCAR-8
SK-MEL-28 = system: SK-MEL-28
RXF 393 = system: RXF 393
NCI-H226 = system: NCI-H226
HCT-15 = system: HCT-15
OVCAR-5 = system: OVCAR-5
A549 = system: A549
RPMI-8226 = system: RPMI-8226
OVCAR-4 = system: OVCAR-4
UACC-257 = system: UACC-257
Malme-3M = system: Malme-3M
HL-60 = system: HL-60
SF-295 = system: SF-295
BT-549 = system: BT-549
SF-539 = system: SF-539
A498 = system: A498
MOLT-4 = system: MOLT-4
LOX IMVI = system: LOX IMVI
SNB-75 = system: SNB-75
M14 = system: M14
SR = system: SR
Hs-578T = system: Hs-578T
ACHN = system: ACHN
U-251 = system: U-251
PC-3 = system: PC-3
SF-268 = system: SF-268
HOP-92 = system: HOP-92
T47D = system: T47D
CAKI-1 = system: CAKI-1
OVCAR-3 = system: OVCAR-3
SNB-19 = system: SNB-19
MCF7 = system: MCF7
TK-10 = system: TK-10
MDA-N = system: MDA-N
DU-145 = system: DU-145
KM12 = system: KM12
UO-31 = system: UO-31
HT-29 = system: HT-29
CCRF-CEM = system: CCRF-CEM
HCC 2998 = system: HCC 2998
NCI-H23 = system: NCI-H23
COLO 205 = system: COLO 205
SK-OV-3 = system: SK-OV-3
NCI/ADR-RES = system: NCI/ADR-RES

COc1ccc2c(O)c(Oc3ccc(Cl)cc3)c(=O)oc2c1
GI50 (SK-MEL-5): > 100 µM (inactive)
GI50 (K562): > 100 µM (inactive)
GI50 (NCI-H460): > 100 µM (inactive)
GI50 (SW-620): > 100 µM (inactive)
GI50 (IGROV-1): 60 µM (inactive)
GI50 (MDA-MB-231): > 100 µM (inactive)
GI50 (SN12C): > 100 µM (inactive)
GI50 (HCT-116): > 100 µM (inactive)
GI50 (786-0): > 100 µM (inactive)
GI50 (EKVX): > 100 µM (inactive)
GI50 (HOP-62): > 100 µM (inactive)
GI50 (NCI-H522): > 100 µM (inactive)
GI50 (OVCAR-8): > 100 µM (inactive)
GI50 (SK-MEL-28): > 100 µM (inactive)
GI50 (RXF 393): 35.3 µM (inactive)
GI50 (NCI-H226): > 100 µM (inactive)
GI50 (HCT-15): 41.4 µM
GI50 (OVCAR-5): > 100 µM (inactive)
GI50 (A549): > 100 µM (inactive)
GI50 (RPMI-8226): > 100 µM (inactive)
GI50 (OVCAR-4): > 100 µM (inactive)
GI50 (UACC-257): > 100 µM (inactive)
GI50 (Malme-3M): 60.7 µM (inactive)
GI50 (HL-60): > 100 µM (inactive)
GI50 (SF-295): > 100 µM (inactive)
GI50 (BT-549): 36.9 µM (inactive)
GI50 (SF-539): > 100 µM (inactive)
GI50 (A498): 38.5 µM (inactive)
GI50 (MOLT-4): > 100 µM (inactive)
GI50 (LOX IMVI): > 100 µM (inactive)
GI50 (SNB-75): 99.5 µM (inactive)
GI50 (M14): 88.9 µM (inactive)
GI50 (SR): > 100 µM (inactive)
GI50 (Hs-578T): > 100 µM (inactive)
GI50 (ACHN): 93.3 µM (inactive)
GI50 (U-251): 53.5 µM (inactive)
GI50 (PC-3): > 100 µM (inactive)
GI50 (SF-268): > 100 µM (inactive)
GI50 (HOP-92): 34.5 µM (inactive)
GI50 (T47D): 55.6 µM (inactive)
GI50 (CAKI-1): 54.3 µM (inactive)
GI50 (OVCAR-3): 83.9 µM (inactive)
GI50 (SNB-19): 31.4 µM (inactive)
GI50 (MCF7): > 100 µM (inactive)
GI50 (TK-10): 78.3 µM (inactive)
GI50 (MDA-N): > 100 µM (inactive)
GI50 (DU-145): 90.4 µM (inactive)
GI50 (KM12): > 100 µM (inactive)
GI50 (UO-31): 27.5 µM (inactive)
GI50 (HT-29): > 100 µM (inactive)
GI50 (CCRF-CEM): > 100 µM (inactive)
GI50 (HCC 2998): 75.7 µM (inactive)
GI50 (NCI-H23): > 100 µM (inactive)

C=CCN1C(=O)/C(=C/c2ccc(OC)cc2)N=C1SC1OC(COC(C)=O)C(OC(C)=O)C(OC(C)=O)C1OC(C)=O (stereo not drawn)
GI50 (SK-MEL-5): 19.5 µM (inactive) and 29 µM (inactive)
GI50 (K562): 36.7 µM (inactive) and 24.5 µM (inactive)
GI50 (SW-620): 60 µM (inactive) and 36.9 µM (inactive)
GI50 (SN12C): 29.6 µM (inactive)
GI50 (HCT-116): 30.8 µM (inactive)
GI50 (786-0): 17.2 µM (inactive)
GI50 (EKVX): 28.2 µM (inactive) and 21.4 µM (inactive)
GI50 (RXF 393): 27 µM (inactive) and 25.3 µM (inactive)
GI50 (NCI-H226): 21.6 µM (inactive) and 32.1 µM (inactive)
GI50 (HCT-15): 36.4 µM and 43.7 µM
GI50 (A549): 34.8 µM (inactive)
GI50 (RPMI-8226): 32.8 µM (inactive) and 43.3 µM (inactive)
GI50 (UACC-257): 29.4 µM (inactive) and 20.7 µM (inactive)
GI50 (Malme-3M): 44.2 µM (inactive) and 57.5 µM (inactive)
GI50 (BT-549): 27.2 µM (inactive) and 19.8 µM (inactive)
GI50 (COLO 205): 67.8 µM (inactive) and 41.3 µM (inactive)
GI50 (A498): 31.9 µM (inactive) and 32.4 µM (inactive)
GI50 (SNB-75): 19.1 µM (inactive) and 35.5 µM (inactive)
GI50 (M14): 39.4 µM (inactive)
GI50 (SR): 34.5 µM (inactive) and 25.9 µM (inactive)
GI50 (SK-OV-3): 18.1 µM (inactive) and 34.7 µM (inactive)
GI50 (HOP-92): 12.7 µM (inactive) and 17.3 µM (inactive)
GI50 (T47D): 23.8 µM (inactive)
GI50 (SNB-19): 32 µM (inactive)
GI50 (MDA-N): 37.8 µM (inactive)
GI50 (DU-145): 23.4 µM (inactive) and 45.3 µM (inactive)
GI50 (HT-29): 8.45 µM (inactive)
GI50 (NCI/ADR-RES): 30.8 µM (inactive) and 48.8 µM (inactive)
GI50 (HCC 2998): 39.7 µM (inactive) and 64.3 µM (inactive)
GI50 (NCI-H23): 33.5 µM (inactive) and 36.9 µM (inactive)
